According to the NIST ThermoML archive (doi:10.1016/j.jct.2006.03.015):

Columns and labels:
[1] = Crystal; visual observation
[2] = mn = molality of the nth substance listed, in mol/kg; conditions: 101 kPa, Liquid; for apparent molar heat capacity: Flow calorimetry

CC(=O)N[C@@H](CCCCN)C(N)=O.Cl [(S)-2-acetamido-6-aminohexanamide hydrochloride]
Conditions | Normal melting temperature [°C]
[1] | 144.4

CC(=O)N[C@@H](CCCCN)C(N)=O.Cl [(S)-2-acetamido-6-aminohexanamide hydrochloride] + O
[2]
Conditions | apparent molar heat capacity [J/K/mol] | mass density [kg/m3]
288.15 K, m1 = 0.02301 | 333.4 | 1000.28
288.15 K, m1 = 0.02858 | 336.3 | 1000.57
288.15 K, m1 = 0.0372 | 339.9 | 1001.01
288.15 K, m1 = 0.04378 | 339.8 | 1001.34
288.15 K, m1 = 0.05396 | 339.8 | 1001.86
288.15 K, m1 = 0.06411 | 343.1 | 1002.37
288.15 K, m1 = 0.07273 | 342 | 1002.8
288.15 K, m1 = 0.08089 | 341.3 | 1003.21
288.15 K, m1 = 0.08886 | 340.4 | 1003.6
288.15 K, m1 = 0.0972 | 343.1 | 1004.02
298.15 K, m1 = 0.02795 | 377.8 | 998.439
298.15 K, m1 = 0.03712 | 377.9 | 998.893
298.15 K, m1 = 0.04507 | 379.4 | 999.283
298.15 K, m1 = 0.05411 | 379.1 | 999.729
298.15 K, m1 = 0.06514 | 378.6 | 1000.27
298.15 K, m1 = 0.07363 | 379 | 1000.68
298.15 K, m1 = 0.08347 | 378.8 | 1001.16
298.15 K, m1 = 0.08995 | 379 | 1001.47
313.15 K, m1 = 0.02397 | 404.5 | 993.394
313.15 K, m1 = 0.03035 | 411.1 | 993.703
313.15 K, m1 = 0.03705 | 406.4 | 994.027
313.15 K, m1 = 0.04583 | 409.4 | 994.449
313.15 K, m1 = 0.05213 | – | 994.754
313.15 K, m1 = 0.05469 | 404 | –
313.15 K, m1 = 0.05752 | – | 995.015
313.15 K, m1 = 0.06361 | 405.8 | 995.306
313.15 K, m1 = 0.06804 | 408 | 995.516
313.15 K, m1 = 0.07802 | 406.1 | 995.99
328.15 K, m1 = 0.02685 | 429 | 986.984
328.15 K, m1 = 0.03581 | 428 | 987.412
328.15 K, m1 = 0.04352 | 428.9 | 987.778
328.15 K, m1 = 0.05273 | 429.2 | 988.207
328.15 K, m1 = 0.06308 | 431.9 | 988.699
328.15 K, m1 = 0.07041 | 431.9 | 989.042
328.15 K, m1 = 0.08088 | 432.4 | 989.527
328.15 K, m1 = 0.0877 | 433.2 | 989.846

CC(=O)N[C@@H](CCC(N)=O)C(N)=O [(S)-2-acetamidopentanediamide]
Conditions | Normal melting temperature [°C]
[1] | 192.4

CC(=O)N[C@@H](CCC(N)=O)C(N)=O [(S)-2-acetamidopentanediamide] + O
[2]
Conditions | apparent molar heat capacity [J/K/mol] | mass density [kg/m3]
288.15 K, m1 = 0.03981 | 353.8 | 1000.96
288.15 K, m1 = 0.04349 | 350.3 | 1001.13
288.15 K, m1 = 0.0507 | 353.7 | 1001.46
288.15 K, m1 = 0.05943 | 355.1 | 1001.86
288.15 K, m1 = 0.06967 | 356.4 | 1002.33
288.15 K, m1 = 0.07857 | 350.8 | 1002.75
288.15 K, m1 = 0.08453 | 356.6 | 1003.03
288.15 K, m1 = 0.09265 | 354.1 | 1003.38
288.15 K, m1 = 0.1008 | 353.9 | 1003.78
298.15 K, m1 = 0.04537 | 377.9 | 999.104
298.15 K, m1 = 0.05783 | 383.7 | 999.659
298.15 K, m1 = 0.06765 | 378 | 1000.1
298.15 K, m1 = 0.08263 | 379.9 | 1000.77
298.15 K, m1 = 0.09722 | 382.3 | 1001.41
298.15 K, m1 = 0.1055 | 382.8 | 1001.79
298.15 K, m1 = 0.1217 | 379.5 | 1002.51
298.15 K, m1 = 0.133 | 381.1 | 1003.01
298.15 K, m1 = 0.1455 | 382.4 | 1003.56
313.15 K, m1 = 0.03917 | 407.2 | –
313.15 K, m1 = 0.04565 | 409.1 | 994.219
313.15 K, m1 = 0.05555 | 410.8 | 994.65
313.15 K, m1 = 0.06371 | 410.7 | 995.007
313.15 K, m1 = 0.07398 | 410.7 | 995.463
313.15 K, m1 = 0.08191 | 408.9 | 995.809
313.15 K, m1 = 0.08959 | 408.6 | 996.143
313.15 K, m1 = 0.1002 | 409 | 996.596
328.15 K, m1 = 0.03787 | 430.2 | 987.321
328.15 K, m1 = 0.04577 | 430 | 987.659
328.15 K, m1 = 0.05585 | 431.2 | 988.092
328.15 K, m1 = 0.0626 | 431.6 | 988.383
328.15 K, m1 = 0.07189 | 432.4 | 988.783
328.15 K, m1 = 0.08069 | 430.4 | 989.147
328.15 K, m1 = 0.0903 | 429.9 | 989.565
328.15 K, m1 = 0.1056 | – | 990.212
